# In patent US20240390513A1, “PHARMACEUTICAL COMPOSITION FOR TREATING INFLAMMATORY DISEASES” (INDUSTRY FOUNDATION OF CHONNAM NATIONAL UNIVERSITY, priority 2021, published 2024):
# System: HK-2 cells
# Assay: Cellular uptake (fluorescence microscope, FACS, ICP-MS)
# Format: cell-based, human
# Settings: 4 hours, non-ROS conditions
# Protocol: For uptake studies, HK-2 cells (3×10^4 cells/well) were seeded onto Lab-Tek® Chamber Slides and cultured overnight. […] Untreated cells were used as a control. After incubation, the medium was aspirated, followed by performing DPBS wash and 4% paraformaldehyde (PFA) fixation. The cells were then counterstained with 4′,6-diamidino-2-phenylindole (DAPI). A fluorescence intensity of IR780 was analyzed by fluorescence microscope (Evos FL Auto 2, Thermo Fisher Scientific) to determine IR780 uptake by cells. To confirm the effect of ROS on intracellular distribution and release, ROS conditions were mimicked by treating the cells with 200 μM H2O2 for 2 hours or culturing the cells in a hypoxia chamber for 2 days before treatment. Cellular uptake was further quantified by flow cytometry. Briefly, 1×10^5 HK-2 cells/well were seeded in a 12-well plate and incubated overnight. The medium was aspirated, another sample was added and incubated for 4 hours. […] The cells were then re-suspended in FACS buffer containing 3% FBS, and fluorescence-activated cell sorting (FACS) was performed to determine the uptake capacity of each group. […] The cellular uptake of the final PTC-M nanocomposite was determined by ICP-MS analysis. […] Aqua regia (1 ml) was added to the final pellets for digestion, then the sample was diluted and analyzed for manganese content by ICP-MS. […]
substance,measurement,value
IR780 iodide,"cellular uptake (IR780 fluorescence, microscope)",higher uptake rate regardless of nanomicelle loading
